Assay results: PMC7795171, “In Silico and In Vitro Analysis of Major Cannabis-Derived Compounds as Fatty Acid Amide Hydrolase Inhibitors” (Molecules, 2020)
Like-named read-outs stand apart in the source and are kept apart here.

Legend:
rFAAH = biological target: T1, rFAAH (Rattus norvegicus, UniProt P97612); assay: FAAH activity assay, rat brain membranes, [14C]AEA hydrolysis; assay type: biochemical; settings: for % In Vitro Inhibition (At 100 µm): rFAAH, compound at 100 µm
T1 construct: from tissue; host or cells: rat brain membranes
T1 sequence (P97612 1-579): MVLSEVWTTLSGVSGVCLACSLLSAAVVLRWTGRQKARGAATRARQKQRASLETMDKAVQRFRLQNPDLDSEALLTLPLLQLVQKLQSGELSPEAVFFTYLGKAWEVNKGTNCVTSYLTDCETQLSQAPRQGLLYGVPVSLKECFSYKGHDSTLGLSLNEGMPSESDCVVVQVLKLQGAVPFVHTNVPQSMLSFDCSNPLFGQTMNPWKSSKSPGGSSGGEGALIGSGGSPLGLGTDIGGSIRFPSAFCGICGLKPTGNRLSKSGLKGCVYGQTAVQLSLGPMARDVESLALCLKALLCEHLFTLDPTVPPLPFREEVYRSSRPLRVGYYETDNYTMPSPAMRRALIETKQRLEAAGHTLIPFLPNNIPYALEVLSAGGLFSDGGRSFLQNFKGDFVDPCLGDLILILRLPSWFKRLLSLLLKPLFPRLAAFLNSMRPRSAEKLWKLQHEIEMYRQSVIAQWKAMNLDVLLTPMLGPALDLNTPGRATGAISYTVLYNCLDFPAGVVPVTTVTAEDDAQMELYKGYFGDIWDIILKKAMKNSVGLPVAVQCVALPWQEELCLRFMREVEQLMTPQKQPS
Description: (§1) Rat brains were homogenized in 50 mM Tris-HCl (50 mM, pH 7.4), and were centrifuged sequentially at 800× g and 20,000× g; then, the supernatants were discharged, and rFAAH activity was tested in membrane preparations incubated with 10 µM [^14C]AEA at 37 °C for 15 min (pH = 9.0). The reaction was stopped with a 1:1 (v/v) mixture of chloroform/methanol and the release of [^14C]ethanolamine in the aqueous phase was measured as reported. Purified human FAAH was assayed in the same way as rFAAH.

hFAAH = biological target: T2, hFAAH (Homo sapiens, UniProt O00519); assay: FAAH activity assay, purified human FAAH, [14C]AEA hydrolysis; assay type: biochemical
T2 construct: purchased Cayman Chemical Company
T2 sequence (O00519 1-579): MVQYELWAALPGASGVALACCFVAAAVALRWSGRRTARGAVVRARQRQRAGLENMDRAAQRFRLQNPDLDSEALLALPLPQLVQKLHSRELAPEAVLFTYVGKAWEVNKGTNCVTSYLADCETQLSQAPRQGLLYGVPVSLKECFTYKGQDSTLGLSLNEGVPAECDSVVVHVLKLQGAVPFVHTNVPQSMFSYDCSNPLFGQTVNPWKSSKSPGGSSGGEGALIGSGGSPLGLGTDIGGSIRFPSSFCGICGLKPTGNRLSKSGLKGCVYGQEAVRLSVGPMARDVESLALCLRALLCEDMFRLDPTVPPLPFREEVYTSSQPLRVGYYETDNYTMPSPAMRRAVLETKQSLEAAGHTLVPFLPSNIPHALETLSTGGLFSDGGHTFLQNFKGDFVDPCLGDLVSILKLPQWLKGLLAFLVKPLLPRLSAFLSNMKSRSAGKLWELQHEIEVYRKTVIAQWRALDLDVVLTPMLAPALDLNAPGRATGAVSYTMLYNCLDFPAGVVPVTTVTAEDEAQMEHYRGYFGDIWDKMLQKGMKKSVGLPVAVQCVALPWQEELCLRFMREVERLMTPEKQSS
Description: as §1

TRPA1 channels = system: TRPA1 channels; parameters: method as in PMID 21726418; settings: read-out: EC50, agonist of TRPA1 channels; cited from earlier work
FAAH = system: FAAH; parameters: method as in PMID 21392988; settings: non-covalent inhibitor co-crystallized in 3QK5; read-out: half-maximal inhibitory concentration (IC50); cited from earlier work
[1] = rat brain membranes, 10 µM [14C]AEA, 37 °C, 15 min, pH 9.0, dose-response 0–100 µM, read-out: IC50 Towards rFAAH
[2] = purified human FAAH, 10 µM [14C]AEA, 37 °C, 15 min, pH 9.0, dose-response 0–100 µM, read-out: IC50 Towards hFAAH

In the case of `C=C1CC/C=C(\C)CC[C@@H]2[C@@H]1CC2(C)C` [BCP, β-caryophyllene], the “% In Vitro Inhibition (At 100 µm)” value (rFAAH) is reported as 18%, the IC50 (rFAAH; [1]) is reported as > 100 µM and the IC50 (hFAAH; [2]) is reported as > 100 µM.

In the case of `CCCCCc1cc(O)c2c(c1)OC(C)(CCC=C(C)C)C=C2` (stereo not shown) [CBC, cannabichromene], the EC50 (TRPA1 channels) is listed as 0.09 µM, the “% In Vitro Inhibition (At 100 µm)” value (rFAAH) is listed as 51% and the IC50 (rFAAH; [1]) is listed as ~100 µM. For the same molecule, the IC50 (hFAAH; [2]) was > 100 µM.

For `C=C(C)[C@@H]1CCC(C)=C[C@H]1c1c(O)cc(CCCCC)cc1O` [CBD, cannabidiol, reference compound], the IC50 (hFAAH; [2]) was > 100 µM.

With `CCCCCc1cc(O)c(C/C=C(\C)CCC=C(C)C)c(O)c1` [CBG, cannabigerol] the “% In Vitro Inhibition (At 100 µm)” value (rFAAH) was 53%, the IC50 (rFAAH; [1]) was ~100 µM and the IC50 (hFAAH; [2]) was > 100 µM.

In the case of `CCCCCc1cc(O)c2c(c1)OC(C)(C)c1ccc(C)cc1-2` [CBN, cannabinol], the IC50 (rFAAH) is reported as 60 ± 10 µM, the “% In Vitro Inhibition (At 100 µm)” value (rFAAH) is reported as 65% and the IC50 (hFAAH) is reported as ~100 µM.

For `Cc1c([C@H]2CCCN(c3nccc(-c4cc5ccccc5s4)n3)C2)c2cccnc2n1CC#N` [QK5], the IC50 (FAAH) is listed as 0.018 µM.

In the case of `CCCc1cc(O)c2c(c1)OC(C)(C)[C@@H]1CCC(C)=C[C@@H]21` [THCV, Δ^9-tetrahydrocannabivarin], the IC50 (rFAAH) is reported as > 100 µM, the “% In Vitro Inhibition (At 100 µm)” value (rFAAH) is reported as 30% and the IC50 (hFAAH) is reported as > 100 µM.

In the case of `NC(=O)c1cccc(-c2cccc(OC(=O)NC3CCCCC3)c2)c1` [URB597, reference compound], the inhibition at 10 µM (hFAAH; read-out: Inhibition of hFAAH activity compared to controls) is reported as > 99.5%.
